Assays:
[1] = target: T1, human TLR8 (Homo sapiens, UniProt Q9NR97); experiment: TLR8 inhibition reporter assay (HEK-Blue cells, SEAP reporter, R848 stimulation); assay type: cell-based; conditions: HEK-Blue cells overexpressing human TLR8, R848 15.9 μM
T1 construct: host or cells: HEK-Blue cells
T1 sequence (Q9NR97 27-1041): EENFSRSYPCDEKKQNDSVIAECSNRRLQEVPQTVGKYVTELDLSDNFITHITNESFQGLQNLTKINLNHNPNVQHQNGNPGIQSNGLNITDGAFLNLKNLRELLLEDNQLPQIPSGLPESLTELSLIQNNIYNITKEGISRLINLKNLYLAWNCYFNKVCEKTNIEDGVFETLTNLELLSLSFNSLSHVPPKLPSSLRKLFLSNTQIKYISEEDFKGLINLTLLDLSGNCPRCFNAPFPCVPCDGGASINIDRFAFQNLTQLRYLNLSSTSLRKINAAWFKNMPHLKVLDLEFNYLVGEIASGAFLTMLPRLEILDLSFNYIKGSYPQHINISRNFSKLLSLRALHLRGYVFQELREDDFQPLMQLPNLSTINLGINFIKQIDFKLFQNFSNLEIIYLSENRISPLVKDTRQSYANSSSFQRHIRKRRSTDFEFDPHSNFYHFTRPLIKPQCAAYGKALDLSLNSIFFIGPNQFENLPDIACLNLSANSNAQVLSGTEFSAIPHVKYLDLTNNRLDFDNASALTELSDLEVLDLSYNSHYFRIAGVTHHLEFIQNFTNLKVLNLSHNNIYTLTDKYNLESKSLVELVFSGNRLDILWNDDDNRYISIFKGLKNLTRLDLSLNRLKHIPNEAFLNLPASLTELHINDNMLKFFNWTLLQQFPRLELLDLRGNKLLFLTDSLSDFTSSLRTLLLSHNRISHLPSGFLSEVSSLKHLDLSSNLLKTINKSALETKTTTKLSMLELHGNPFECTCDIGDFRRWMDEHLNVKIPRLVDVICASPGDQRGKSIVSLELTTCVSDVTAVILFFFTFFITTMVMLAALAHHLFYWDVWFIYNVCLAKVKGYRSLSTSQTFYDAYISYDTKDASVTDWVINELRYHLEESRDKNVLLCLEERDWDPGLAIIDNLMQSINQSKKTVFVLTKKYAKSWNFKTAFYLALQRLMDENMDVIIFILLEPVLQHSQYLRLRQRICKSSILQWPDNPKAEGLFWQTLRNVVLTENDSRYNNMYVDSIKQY
Description: TLR7/8/9 Inhibition Reporter Assays
Briefly, cells are seeded into Greiner 384 well plates (15000 cells per well for TLR7, 20,000 for TLR8 and 25,000 for TLR9) and then treated with test compounds in DMSO to yield a final dose response concentration range of 0.05 nM-50 μM. […] After a 22 hour incubation at 37° C., 5% CO2, SEAP levels are determined with the addition of HEK-Blue™ Detection reagent (Invivogen), a cell culture medium that allows for detection of SEAP, according to manufacturer's specifications. The percent inhibition is determined as the % reduction in the HEK-Blue signal present in wells treated with agonist plus DMSO alone compared to wells treated with a known inhibitor.

[2] = target: T2, human TLR9 (Homo sapiens, UniProt Q9NR96); experiment: TLR9 inhibition reporter assay (HEK-Blue cells, SEAP reporter, ODN2006 stimulation); assay type: cell-based; conditions: HEK-Blue cells overexpressing human TLR9, ODN2006 5 nM
T2 construct: host or cells: HEK-Blue cells
T2 sequence (Q9NR96 26-1032): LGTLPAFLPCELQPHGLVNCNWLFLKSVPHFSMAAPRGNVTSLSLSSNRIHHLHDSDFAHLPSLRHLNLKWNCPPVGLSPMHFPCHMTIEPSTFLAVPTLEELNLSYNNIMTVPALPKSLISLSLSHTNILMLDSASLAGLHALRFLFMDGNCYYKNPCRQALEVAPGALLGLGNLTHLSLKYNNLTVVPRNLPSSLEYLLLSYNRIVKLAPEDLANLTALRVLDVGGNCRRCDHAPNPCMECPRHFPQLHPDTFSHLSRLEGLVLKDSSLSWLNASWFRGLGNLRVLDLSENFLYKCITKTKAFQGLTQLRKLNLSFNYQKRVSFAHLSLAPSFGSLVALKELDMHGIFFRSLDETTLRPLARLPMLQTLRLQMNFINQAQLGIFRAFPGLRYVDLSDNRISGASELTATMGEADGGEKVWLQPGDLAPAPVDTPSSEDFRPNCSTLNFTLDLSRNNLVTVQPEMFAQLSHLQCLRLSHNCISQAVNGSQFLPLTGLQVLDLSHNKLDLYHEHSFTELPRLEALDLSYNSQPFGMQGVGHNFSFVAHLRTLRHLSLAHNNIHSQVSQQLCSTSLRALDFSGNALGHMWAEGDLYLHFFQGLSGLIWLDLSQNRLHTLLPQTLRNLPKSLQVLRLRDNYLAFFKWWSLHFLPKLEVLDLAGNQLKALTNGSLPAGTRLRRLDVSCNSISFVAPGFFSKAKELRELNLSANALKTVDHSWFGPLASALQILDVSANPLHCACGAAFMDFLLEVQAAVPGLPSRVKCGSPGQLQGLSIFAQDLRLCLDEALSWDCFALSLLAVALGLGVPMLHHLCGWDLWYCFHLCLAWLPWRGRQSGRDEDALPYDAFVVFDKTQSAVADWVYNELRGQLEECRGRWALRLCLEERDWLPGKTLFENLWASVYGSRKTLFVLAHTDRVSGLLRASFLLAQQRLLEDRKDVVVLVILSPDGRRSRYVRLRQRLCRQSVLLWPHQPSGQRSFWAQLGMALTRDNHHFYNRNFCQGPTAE
How it was run: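 Human TLR7/8/9 HEK-Blue reporter lines; dose range 0.05 nM–50 μM; 30 min RT preincubation; stimulus gardiquimod 7.5 μM / R848 15.9 μM / ODN2006 5 nM respectively; 22 h, 37 °C; SEAP detected colorimetrically.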

[3] = target: T3, human TLR7 (Homo sapiens, UniProt Q9NYK1); experiment: TLR7 inhibition reporter assay (HEK-Blue cells, SEAP reporter, gardiquimod stimulation); assay type: cell-based; conditions: HEK-Blue cells overexpressing human TLR7, gardiquimod 7.5 μM
T3 construct: host or cells: HEK-Blue cells
T3 sequence (Q9NYK1 27-1049): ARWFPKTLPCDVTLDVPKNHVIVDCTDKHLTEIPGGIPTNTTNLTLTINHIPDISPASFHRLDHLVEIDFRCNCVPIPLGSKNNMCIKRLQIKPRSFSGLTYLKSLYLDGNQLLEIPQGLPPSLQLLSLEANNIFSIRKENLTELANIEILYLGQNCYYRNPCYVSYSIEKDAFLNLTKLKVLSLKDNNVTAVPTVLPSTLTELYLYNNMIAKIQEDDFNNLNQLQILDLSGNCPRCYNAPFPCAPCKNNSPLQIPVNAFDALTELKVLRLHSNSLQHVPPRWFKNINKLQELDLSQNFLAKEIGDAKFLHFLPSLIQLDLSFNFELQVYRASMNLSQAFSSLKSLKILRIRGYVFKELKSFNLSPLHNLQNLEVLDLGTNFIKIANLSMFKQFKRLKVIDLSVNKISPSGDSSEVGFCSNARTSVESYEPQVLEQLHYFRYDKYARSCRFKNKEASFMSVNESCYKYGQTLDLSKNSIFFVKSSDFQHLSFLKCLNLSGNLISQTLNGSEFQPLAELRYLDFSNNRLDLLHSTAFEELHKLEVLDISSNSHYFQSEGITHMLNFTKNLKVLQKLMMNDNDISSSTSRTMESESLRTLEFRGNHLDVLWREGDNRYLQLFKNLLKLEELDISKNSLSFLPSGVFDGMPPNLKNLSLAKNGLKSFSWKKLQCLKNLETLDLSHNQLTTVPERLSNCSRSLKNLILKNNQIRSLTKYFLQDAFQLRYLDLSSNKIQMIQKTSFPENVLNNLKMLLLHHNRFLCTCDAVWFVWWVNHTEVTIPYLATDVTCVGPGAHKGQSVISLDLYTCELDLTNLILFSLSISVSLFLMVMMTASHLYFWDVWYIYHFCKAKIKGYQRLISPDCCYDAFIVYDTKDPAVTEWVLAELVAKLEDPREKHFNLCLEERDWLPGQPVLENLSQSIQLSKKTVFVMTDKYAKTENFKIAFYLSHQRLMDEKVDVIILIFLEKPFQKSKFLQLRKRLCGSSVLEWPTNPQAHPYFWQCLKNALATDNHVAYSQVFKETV
How it was run: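 Cells (15000/well for TLR7, 20,000 for TLR8) were treated with compounds over 0.05 nM-50 μM final. After 22 h at 37° C, 5% CO2, SEAP was measured with HEK-Blue Detection reagent; percent inhibition was taken as reduction of agonist-plus-DMSO signal relative to a known inhibitor.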

[4] = test system: TLR9; experiment: In vivo mouse TLR9 PD model (CpG-ODN challenge, plasma IL-6); conditions: oral
Description: In Vivo Mouse TLR7 and TLR9 PD Model:
Adult male C57BL/6 mice were used for the experiments. Mice (7 to 10 per group) were randomized into different treatment groups based on body weight. Mice from the respective treatment groups were administered orally with vehicle or test compound. Thirty min after the oral administration of vehicle or test compound, mice were challenged with intraperitoneal injection of gardiquimod for TLR7 PD model and CpG-ODN for TLR9 PD model. Ninety minutes after gardiquimod injection and 120 minutes after CpG-ODN injection, mice were bled under isoflurane anaesthesia and plasma IL-6 level was estimated by using commercially available ELISA kit (BD Biosciences). At the end of experiment, mean cytokine data was plotted and one way ANOVA with Dunnett's test was performed to calculate the significance of test compound treated group vs. vehicle control group. Percent inhibition of cytokine induction was calculated for test compound treated group vs vehicle control group.

Row | SMILES | IC50 [1] [µM] | IC50 [2] [µM] | IC50 [3] [µM] | further results
1 | COc1ccc(-c2[nH]c3ccc(C4CCN(C(=O)COC5CCN(C)CC5)CC4)cc3c2C(C)C)cc1OC [Example 315, 1-(4-(2-(3,4-dimethoxyphenyl)-3-isopropyl-1H-indol-5-yl)piperidin-1-yl)-2-((1-methylpiperidin-4-yl)oxy)ethan-1-one] | 0.824 | – | 0.538 | –
2 | COc1ccc(-c2[nH]c3ccc(C4CCN(Cc5ccncc5)CC4)cc3c2C)cc1OC [Example 20, 2-(3,4-dimethoxyphenyl)-3-methyl-5-(1-(pyridin-4-ylmethyl)piperidin-4-yl)-1H-indole] | 0.978 | 1.74 | – | –
3 | CNCCN1CCC(c2ccc3[nH]c(-c4ccc(OC)c(OC)c4)c(Cl)c3c2)CC1 [Example 119] | 0.555 | 0.409 | – | –
4 | CNCCN1CCC(c2ccc3[nH]c(-c4ccc(OC)c(OC)c4)c(C(C)C)c3c2)CC1 [Example 196, 2-(4-(2-(3,4-dimethoxyphenyl)-3-isopropyl-1H-indol-5-yl)piperidin-1-yl)-N-methylethan-1-amine] | – | 0.521 | – | % inhibition of IL6 ([4]; dose 1 mg/kg): 47%; % inhibition of IL6 ([4]; dose 3 mg/kg): 75%; % inhibition of IL6 ([4]; dose 10 mg/kg): 83%; % inhibition of IL6 ([4]; dose 30 mg/kg): 88%; % inhibition of IL6 ([4]; dose 100 mg/kg): 62%

Continued by falling IC50 [1], values first:

Row | IC50 [1] [µM] | IC50 [2] [µM] | IC50 [3] [µM] | SMILES | further results
5 | 0.378 | – | 1.14 | CCc1c(-c2ccc(OC)c(OC)c2)[nH]c2ccc(C3CCN(C4CCN(Cc5c(C)[nH]c6ccccc56)CC4)CC3)cc12 [Example 129, 2-(3,4-dimethoxyphenyl)-3-ethyl-5-(1′-((2-methyl-1H-indol-3-yl)methyl)-[1,4′-bipiperidin]-4-yl)-1H-indole] | –
6 | 0.347 | 0.26 | – | CNCCN1CCC(c2ccc3[nH]c(-c4ccc(OC)c(OC)c4)c(C#N)c3c2)CC1 [Example 118, 2-(3,4-dimethoxyphenyl)-5-(1-(2-(methylamino)ethyl)piperidin-4-yl)-1H-indole-3-carbonitrile-di-trifluoroacetic acid] | –
7 | 0.33 | – | 0.735 | CCc1c(-c2ccc(OC)c(OC)c2)[nH]c2ccc(C3CCN(C4CCN(Cc5nccn5C)CC4)CC3)cc12 [Example 136, 2-(3,4-dimethoxyphenyl)-3-ethyl-5-(1′-((1-methyl-1H-imidazol-2-yl)methyl)-[1,4′-bipiperidin]-4-yl)-1H-indole] | –
8 | 0.178 | – | 0.586 | CCc1c(-c2ccc(OC)c(OC)c2)[nH]c2ccc(C3CCN(C4CCN(Cc5ccoc5)CC4)CC3)cc12 [Example 146, 2-(3,4-dimethoxyphenyl)-3-ethyl-5-(1′-(furan-3-ylmethyl)-[1,4′-bipiperidin]-4-yl)-1H-indole] | –
9 | 0.025 | – | – | COc1ccc(-c2[nH]c3ccc(C4CCN(Cc5[nH]cnc5C)CC4)cc3c2C(C)C)cc1OC [Example 267, 2-(3,4-dimethoxyphenyl)-3-isopropyl-5-(1-((4-methyl-1H-imidazol-5-yl)methyl)piperidin-4-yl)-1H-indole] | –
